The target of data set [1] is T1, Lysine-specific demethylase 4E (Homo sapiens, UniProt B2RXH2).
T1 sequence (B2RXH2 whole entry): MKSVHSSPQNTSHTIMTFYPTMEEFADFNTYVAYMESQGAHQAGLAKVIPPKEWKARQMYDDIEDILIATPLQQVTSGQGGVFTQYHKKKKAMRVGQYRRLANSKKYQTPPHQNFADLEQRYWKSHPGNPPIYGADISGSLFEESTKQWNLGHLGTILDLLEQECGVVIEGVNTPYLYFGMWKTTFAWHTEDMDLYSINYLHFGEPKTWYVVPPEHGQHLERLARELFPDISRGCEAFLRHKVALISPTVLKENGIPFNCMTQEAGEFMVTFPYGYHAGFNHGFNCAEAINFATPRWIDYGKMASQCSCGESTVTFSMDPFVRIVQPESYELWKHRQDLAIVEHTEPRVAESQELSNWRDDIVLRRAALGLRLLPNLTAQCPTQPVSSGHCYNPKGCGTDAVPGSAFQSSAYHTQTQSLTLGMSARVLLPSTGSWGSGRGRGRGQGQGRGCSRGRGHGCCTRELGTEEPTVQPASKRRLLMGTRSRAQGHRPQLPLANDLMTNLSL
In words: Inhibition of N-terminal His6-tagged KDM4E (1 to 337 residues) (unknown origin) expressed in Escherichia coli BL21 (DE3)-R3 preincubated for 10 mins followed by alpha-KG addition after CTH addition for 2 hrs by ELISA. On the technique in general: An ELISA detects its analyte on a solid surface through an enzyme-linked reagent.

For data set [2], the system named is PC-3. In words: Cytotoxicity against human PC-3 cells assessed as remaining cell viability after 48 hrs by alamar blue assay. The data set is classed as functional. (In general: Resazurin is reduced to fluorescent resorufin, in cell work by metabolically active cells.)
Data set [3] deals with DU-145. In words: Cytotoxicity against human DU-145 cells assessed as growth inhibition after 48 hrs by alamar blue assay. The data set is classed as functional.
The nature of data set [4]: Cytotoxicity against human prostate epithelial cells assessed as remaining cell viability after 48 hrs by alamar blue assay. The data set is classed as functional.
Data set [5] concerns the target T1, Lysine-specific demethylase 4E. In words: Inhibition of N-terminal His6-tagged KDM4E (1 to 337 residues) (unknown origin) expressed in Escherichia coli BL21 (DE3)-R3 preincubated for 10 mins followed by substrate addition by fluorescence based FDH-coupled assay.
The test system of data set [6] is DU-145. In words: Cytotoxicity against human DU-145 cells assessed as remaining cell viability after 48 hrs by alamar blue assay. The class given is functional.
A short description of data set [7]: Cytotoxicity against human prostate epithelial cells assessed as growth inhibition after 48 hrs by alamar blue assay. The data set is classed as cell-based, Prostate cell.
Data set [8] has as its system LNCaP. In words: Cytotoxicity against human LnCaP cells assessed as growth inhibition after 48 hrs by alamar blue assay. The data set is classed as functional.
The nature of data set [9]: Cytotoxicity against human LnCaP cells assessed as remaining cell viability after 48 hrs by alamar blue assay. The class given is functional, Prostate cell.
The subject of data set [10] is PC-3. Put plainly: Cytotoxicity against human PC-3 cells assessed as growth inhibition after 48 hrs by alamar blue assay. The class given is functional.

On to `COC(=O)Cc1cc(O)n(-c2nc3ccccc3[nH]2)n1`, for which the concentration for half-maximal inhibition (IC50) in [1] was 581 µM; in data set [5], 15 µM. For the same compound, the Activity in data set [2] stood at 79%; in data set [4] it was 12%; in data set [6], 69%; in data set [9], 15%. Moreover, the concentration for 50% growth inhibition (GI50) in [3] is > 1 mM; in data set [8], 410 µM; in data set [10] it was > 1 mM. The concentration for 50% growth inhibition (GI50) at 48 h in data set [7] was > 500 µM.

As usually defined, the IC50 is the midpoint of a concentration-inhibition curve. A high value points to lower potency. As a reminder, the GI50 is the concentration at which growth is held to half of that of the control.

(Values after ChEMBL document CHEMBL4842380, “Enhanced Properties of a Benzimidazole Benzylpyrazole Lysine Demethylase Inhibitor: Mechanism-of-Action, Binding Site Analysis, and Activity in Cellular Models of Prostate Cancer” (J Med Chem, 2021).)
